For 88 molecules, melting point results are on record in a melting point compilation (Tetko et al.; mined from patent text by program, amines drawn as free bases though some values may be those of a salt).

The structures appear in SMILES notation.

In the case of `Nc1nc(/C(=N/OCC(=O)N2CCCCCC2)C(=O)O)cs1`, the melting point (in general, the temperature, or range, at which the solid turns liquid) was 178 to 179 °C.

Consider `CCCn1c(-c2ccc3c(c2)OCO3)nc2ccccc21`, for which the melting point was 77.5 to 78 °C.

The molecule `COc1cc(N)c(Cl)cc1C(=O)NCC1CCN(CCOCc2ccccc2)CC1` yielded a melting point of 123 to 125 °C.

As for `N#Cc1cn(-c2ccccn2)nc1-c1ccc([N+](=O)[O-])o1`, the melting point was in the range of 207 to 208 °C.

On to `Cc1sc2c(c1C)C(c1ccc(Cl)cc1)=N[C@@H](CC(=O)NCCO)c1nnc(C)n1-2`, for which the melting point fell in the range of 254 to 255 °C.

Consider `CCc1nc2c(C)cc(C)nc2n1Cc1ccc(C(CCNS(=O)(=O)C(F)(F)F)c2ccccc2)cc1` (stereo not drawn), for which the melting point fell in the range of 64 to 69 °C.

For the molecule `O=C(CC1(S(=O)c2ccc(Oc3ccc(F)cc3)cc2)CCOCC1)NO` (stereo not drawn), the melting point is 120 °C.

In turn, `COc1cc(OC)c2c(C)cc(=O)[nH]c2c1` yielded a melting point of 239 to 240 °C.

Regarding `Cc1c(Br)cnc(NC(=O)C2CC2)c1[N+](=O)[O-]`, the melting point amounted to 205 °C.

On to `O=c1c(CO)cnc2c3ccccc3ccn12`, for which the melting point is 198 °C.

Turning to `CC(C)(S)[C@@H](NC(=O)c1ccc(Br)cc1)C(=O)O`, the melting point turned out to be 176 °C.

`CC(=O)Nc1cccc2c(-c3ccccc3)c([N+](=O)[O-])oc12` registered a melting point of 224 to 226 °C.

For the molecule `ON=C1CCC2(CC1)OC(c1ccccc1)c1ccccc12` (stereo not drawn), the melting point lay in the range of 172 to 175 °C.

For the molecule `CN1CC(CCCN2CCN(c3ncccn3)CC2)OC1=O` (stereo not drawn), the melting point is 79 to 89 °C.

In the case of `Fc1cccc(F)c1Cn1c(-c2c(F)cccc2F)nc2ccccc21`, the melting point turned out to be 145 °C.

Consider `CC(C)c1ccc(S(=O)(=O)n2c(COC(C)(C)C(=O)O)cc3cc(C(F)(F)F)ccc32)cc1`, for which the melting point fell in the range of 132 to 134 °C.

`CN(C)C=CC(=O)c1ccncc1` returned a melting point of 114 to 116 °C.

With `Cc1cc2c(cc1C)C(N)CC(C)(C)O2` (stereo not drawn), the melting point was > 270 °C.

`Cc1cc(-c2ccc(C(F)(F)F)nc2)nc(-c2cccc(-c3cccc(S(N)(=O)=O)c3)c2)n1` came in with a melting point of 220 °C.

For `COc1ccc([C@@H]2Sc3ccccc3N(CCN(C)C)C(=O)[C@@H]2OC(=O)c2ccc([N+](=O)[O-])cc2)cc1`, the melting point lay within 113 to 114 °C.

`O=C(COc1cc(-c2cccc(Cl)c2)nc2ccccc12)N1CCOCC1` returned a melting point of 131 °C.

In turn, `CN1CCC(C(=O)OC2c3ccccc3C(=O)N2c2ccc3ccc(Cl)nc3n2)CC1` (stereo not drawn) displayed a melting point of 136 °C.

On to `CC(C)c1nc(Sc2ccc(CCC(=O)O)cc2)c(C(=O)O)n1Cc1cc2c(cc1Cl)OCO2`, for which the melting point was 198 °C.

`CC(=NN(c1ccccc1)c1ccccc1)c1ccccn1`: the melting point amounted to 84 °C.

In turn, `O=C(CCCN1CCC(c2ccccc2)CC1)c1ccc2c(c1)Cc1cc(C(=O)CCCN3CCC(c4ccccc4)CC3)ccc1-2` returned a melting point of 190 to 192 °C.

In turn, `CN1CCC(Sc2cc3c(cc2Cl)[nH]c(=O)n3C)CC1` came in with a melting point of 210 to 212 °C.

Take `CCOP(=O)(CC(=O)N1c2ccccc2NC(=O)c2ccccc21)OCC`: the melting point was in the range of 195 to 197 °C.

Molecule `CCCCCCCCCCCCCCn1c(=O)[nH]c2nc3ccccc3n2c1=O` yielded a melting point of 193 °C.

Take `Cc1oc(-c2ccccc2)nc1COc1ccc(CON2C(=O)c3ccccc3C2=O)cc1`: the melting point is 155 to 156 °C.

As for `CN(C)c1cccc(C(=O)Nc2ccc3ccc(Cl)nc3n2)c1`, the melting point was 215 °C.

The molecule `O=C1N(Cc2ccc(=O)[nH]c2)c2ccccc2C12COc1cc3c(cc12)OCO3` (stereo not drawn) gave a melting point of 247 to 250 °C.

Molecule `Cn1ncc2c(=O)n3c(nc21)SCC3(C)C` had a melting point of 188 °C.

`CCCn1c(=O)n(CC(C)=O)c(=O)c2[nH]c(C34CC5CC(CC3C5)C4)nc21` showed a melting point of 181 to 184 °C.

For `CNC(=NC#N)NCCSCc1cc(C)c(CN(C)C)o1`, the melting point lay within 86 to 88 °C.

`CCOC(=O)c1c(C(C)C)nc2c(c(C)nn2C)c1-c1ccc(F)cc1`: the melting point was 68 to 71 °C.

`CC(C)(C)c1ccc2c(c1)OC(C(F)(F)F)C(C(=O)O)=C2` (stereo not drawn) displayed a melting point of 166 to 167 °C.

In the case of `COC(=O)c1ccc(N=C(Nc2ccc(C(=O)OC)cc2)c2ccccc2)cc1`, the melting point was in the range of 180 to 182 °C.

On to `Cc1c(C(=O)NCc2ccccc2)nc(-n2ccc(OCc3ccccc3)cc2=O)n1C`, for which the melting point is 190 to 191 °C.

In turn, `O=[N+]([O-])c1ccc2c(c1)NCC(C(F)F)(C(F)F)O2` showed a melting point of 150 to 152 °C.

`COc1cc(C(C)C(=O)O)ccc1-c1ccc(F)cc1` (stereo not drawn) had a melting point of 133 to 136 °C.

In turn, `CC(=O)/C=C(\C)c1ccc(C2CCCCC2)cc1` showed a melting point of 49 to 50 °C.

`Oc1cc(Cl)ccc1Oc1cccc(Br)c1` gave a melting point of 63 to 65 °C.

For the molecule `Oc1cc(OCc2ccccc2)cc(OCc2ccccc2)c1C[C@H](O)[C@@H](O)c1ccccc1`, the melting point fell in the range of 121 to 123 °C.

With `Nc1cc(C(=O)O)cc(OCc2ccccc2)c1Cc1ccccc1`, the melting point was in the range of 208 to 210 °C.

For `CCCCCCCCCCCCCCCC1CCCC(=O)C1` (stereo not drawn), the melting point was 41 °C.

As for `COc1ccc2c(c1)C(CCC(C)C)(C(F)(F)F)OCC(=O)N2` (stereo not drawn), the melting point lay within 123 to 130 °C.

On to `O=C1CCC(=NNc2ccc(I)cc2)c2ncccc2N1`, for which the melting point lay in the range of 204 to 205 °C.

The molecule `COc1c(Cl)cc(N)cc1Cl` gave a melting point of 80 to 81 °C.

`CCCOc1ccc(S(=O)(=O)N2CCN(C(C)=O)CC2)cc1-c1nc2cc(N)c([N+](=O)[O-])cc2c(=O)[nH]1` displayed a melting point of 249 to 251 °C.

Take `O=C(O)CCCC/C=C(\c1ccc(-c2nc(C(=O)NCCCCCOc3ccccc3)co2)cc1)c1cccnc1`: the melting point lay in the range of 42 to 48 °C.

In the case of `CCOC(=O)C1(C(=O)O)Cc2cc(OC)c(OC)cc2C1`, the melting point was 146 to 148 °C.

The molecule `O=[N+]([O-])c1ccc(-c2ncnn2-c2ccc(Br)cc2)cc1` showed a melting point of 142 to 144 °C.

In turn, `COc1ccc(Cn2c3ccccc3c3c(N)c4c(nc32)CC(c2ccccc2)CC4=O)cc1` (stereo not drawn) gave a melting point of 163 to 165 °C.

In the case of `Oc1ccc(-c2n[nH]c3ncnc(Nc4cccc(Cl)c4)c23)cc1`, the melting point was > 220 °C.

Regarding `CS(=O)(=O)N(Cc1ccco1)CC(O)(Cn1cncn1)c1ccc(Cl)cc1Cl` (stereo not drawn), the melting point lay within 114 to 115 °C.

In turn, `COCC1CN(c2ccc(C3CCN(C(=O)C=Cc4ccccc4)CC3)cc2)C(=O)O1` (racemic) showed a melting point of 136 to 138 °C.

In the case of `C#CCN1C(=O)c2ccccc2C1O` (stereo not drawn), the melting point was 157 to 159 °C.

`O=C(O)Cc1ccc(C(=O)c2ccc(Cl)cc2)[nH]1` had a melting point of 210 °C.

As for `CC1(C)OCC(c2nc3c(C(F)(F)F)cccc3c(O)c2C(=O)Nc2nccs2)O1` (stereo not drawn), the melting point was 250 °C.

Turning to `CC(O)CN1CCCC(c2cccs2)=N1` (stereo not drawn), the melting point was in the range of 74 to 77 °C.

`CS(=O)c1ccc(Oc2ccc(Cl)c(Cl)c2)nc1C#N` (stereo not drawn) registered a melting point of 165 to 167 °C.

Take `CN(C)S(=O)(=O)C=C(C(=O)C1CCCCC1)c1cccc([N+](=O)[O-])c1`: the melting point is 115 to 118 °C.

In the case of `COc1ccc(C(=O)Nc2ccc3ccc(OC(C)C)nc3n2)cc1`, the melting point is 78 °C.

Regarding `CNc1ccccc1CNC(=O)C1Cc2ccccc2N1S(=O)(=O)c1ccc(-c2cccc(C(F)(F)F)c2)cc1` (stereo not drawn), the melting point stood at 86 °C.

For `O=C(c1c[nH]c2cc(O)ccc12)C1CSC(c2cccnc2)N1` (stereo not drawn), the melting point lay in the range of 203 to 205 °C.

`CCN(Cc1ccccc1)C(=O)Cn1c2cccc(OCc3ccccc3)c2c2c(COC)c(C(=O)OC(C)C)ncc21` yielded a melting point of 142 to 144 °C.

`CC(=O)N1CCc2c(c3ccc(-n4ccc(OCc5ccc(F)cn5)cc4=O)cc3n2C)C1` yielded a melting point of 220 to 224 °C.

As for `CC(=O)OC1CSC(Oc2ccc(-c3cccnc3Cl)nc2)C(OC(C)=O)C1OC(C)=O` (stereo not drawn), the melting point turned out to be 180 °C.

On to `CN(C(=O)c1ccc2nonc2c1)C1CCC(=NO)CC1` (stereo not drawn), for which the melting point lay within 197 to 198 °C.

`CC1NC(=O)NN=C1c1ccc(NCc2cccnc2)cc1` (stereo not drawn) gave a melting point of 254 to 256 °C.

On to `OCc1c(Cl)cc(Cl)c2ccc(Cl)cc12`, for which the melting point was in the range of 107 to 112 °C.

The molecule `COC(=O)c1cc(N)ccc1O` gave a melting point of 93 to 95 °C.

In turn, `CCOc1nc2c(nc1C(=O)N1CCN(C)CC1)c(C)nn2CC` yielded a melting point of 111 to 112 °C.

`CN(C)CCNc1c2c(nc3ccccc13)CCCC2O` (stereo not drawn) showed a melting point of 135 to 138 °C.

With `Nc1c(SC(F)(F)F)c(C(=O)NC2CC2)nn1-c1c(Cl)cc(C(F)(F)F)cc1Cl`, the melting point stood at 193 °C.

Regarding `Nc1nc2ccccc2c2c1ncn2CCCCNC(=O)c1ccnc2ccccc12`, the melting point was 214 to 215 °C.

Take `Cc1cc([N+](=O)[O-])cc(C)c1Oc1ccc(OCc2ccccc2)c(C(C)C)c1`: the melting point was in the range of 99 to 100 °C.

In turn, `OCCCCCCCCCCCCCCCCc1c[nH]c2ccccc12` showed a melting point of 79 to 80 °C.

Molecule `COc1ccc(C(=O)Nc2ccc(OCCCl)cc2)c(N)c1` displayed a melting point of 167 to 168 °C.

Turning to `CCc1cc(-c2ccc(F)cc2)c(O)cc1OC(CC)Oc1cc(NC(=O)CCCC(=O)N2CCOCC2)ccc1CCC(=O)O` (stereo not drawn), the melting point fell in the range of 78 to 80 °C.

`CC(C)(C)c1cc(C=C2SC(=S)N(C3CC3)C2=O)cc(C(C)(C)C)c1O` registered a melting point of 158 to 168 °C.

Molecule `CCc1c(CO)nc(-c2ccc(OC)c(OC)c2)c2cc(OC)c(OC)cc12` came in with a melting point of 160 to 163 °C.

`CC1(C)OCC(N2CCC(Cc3ccccc3)CC2)O1` (stereo not drawn) displayed a melting point of 92 to 94 °C.

For `Cc1cccc(C(=O)Nc2c[nH]nc2C(=O)NCCC#N)n1`, the melting point lay within 225 to 227 °C.

Molecule `C=CCc1c(C)nc(C)c(C(=O)Nc2c(CC)cc(C)cc2CC)c1Cl` yielded a melting point of 192 to 194 °C.

With `O=C(C=Cc1cccc(NS(=O)(=O)/C=C/c2ccccc2)c1)NO`, the melting point was 171 °C.

As for `O=C1CCC(c2ccc(O)cc2)=NN1c1ccccn1`, the melting point is > 220 °C.

`Cn1ccc2cc(C(=O)NN)ccc21` showed a melting point of 140 to 141 °C.
